pIC50: −log10 of the molar value.
Assay: Inhibition of recombinant human IL-17A/IL-17AR protein-protein interaction using TMB substrate compound added on IL17A precoated plate and followed by IL-17AR addition by ELISA

SMILES | pIC50
CO[C@]1(C)C[C@H](O[C@H]2[C@H](C)[C@@H](O[C@@H]3O[C@H](C)C[C@H](N(C)C)[C@H]3O)[C@](C)(O)C[C@@H](C)CN(C)C(=O)C[C@@H](Cc3ccc(NC(=O)[C@H](Cc4ccccc4Cl)NC(=O)Cc4ccccc4F)cc3)NC(=O)[C@H](C(C)C)NC(=O)[C@@H]2C)O[C@@H](C)[C@@H]1O | 6.70
CO[C@]1(C)C[C@H](O[C@H]2[C@H](C)[C@@H](O[C@@H]3O[C@H](C)C[C@H](N(C)C)[C@H]3O)[C@](C)(O)C[C@@H](C)CN(C)C(=O)C[C@@H](Cc3ccc(NC(=O)[C@H](Cc4ccccc4Cl)NS(=O)(=O)Cc4ccccc4)cc3)NC(=O)[C@H](C(C)C)NC(=O)[C@@H]2C)O[C@@H](C)[C@@H]1O | 5.59
CC[C@H](C)[C@@H]1NC(=O)[C@H](C)[C@@H](O[C@H]2C[C@@](C)(OC)[C@@H](O)[C@H](C)O2)[C@H](C)[C@@H](O[C@@H]2O[C@H](C)C[C@H](N(C)C)[C@H]2O)[C@](C)(O)C[C@@H](C)CN(C)C(=O)C[C@@H](Cc2ccc(NC(=O)[C@H](Cc3ccccc3Cl)NC(=O)Cc3ccccc3)cc2)NC1=O | 5.59
CO[C@]1(C)C[C@H](O[C@H]2[C@H](C)[C@@H](O[C@@H]3O[C@H](C)C[C@H](N(C)C)[C@H]3O)[C@](C)(O)C[C@@H](C)CN(C)C(=O)C[C@@H](Cc3ccc(NC(=O)[C@H](Cc4ccccc4Cl)NC(=O)Cc4ccc(C)cc4)cc3)NC(=O)[C@H](C(C)C)NC(=O)[C@@H]2C)O[C@@H](C)[C@@H]1O | 6.61
CO[C@]1(C)C[C@H](O[C@H]2[C@H](C)[C@@H](O[C@@H]3O[C@H](C)C[C@H](N(C)C)[C@H]3O)[C@](C)(O)C[C@@H](C)CN(C)C(=O)C[C@@H](Cc3ccc(NC(=O)[C@H](Cc4ccccc4Cl)NC(=O)C(C)c4ccccc4)cc3)NC(=O)[C@H](C(C)C)NC(=O)[C@@H]2C)O[C@@H](C)[C@@H]1O (stereo partly drawn) | 6.61
CO[C@]1(C)C[C@H](O[C@H]2[C@H](C)[C@@H](O[C@@H]3O[C@H](C)C[C@H](N(C)C)[C@H]3O)[C@](C)(O)C[C@@H](C)CN(C)C(=O)C[C@@H](Cc3ccc(NC(=O)[C@H](Cc4ccccc4Cl)NC(=O)Cc4ccc(S(C)(=O)=O)cc4)cc3)NC(=O)[C@H](C(C)C)NC(=O)[C@@H]2C)O[C@@H](C)[C@@H]1O | 6.02
CO[C@]1(C)C[C@H](O[C@H]2[C@H](C)[C@@H](O[C@@H]3O[C@H](C)C[C@H](N(C)C)[C@H]3O)[C@](C)(O)C[C@@H](C)CN(C)C(=O)C[C@@H](Cc3ccc(NC(=O)[C@H](Cc4ccccc4Cl)NC(=O)Cc4cccc(F)c4)cc3)NC(=O)[C@H](C(C)C)NC(=O)[C@@H]2C)O[C@@H](C)[C@@H]1O | 7.10
CO[C@]1(C)C[C@H](O[C@H]2[C@H](C)[C@@H](O[C@@H]3O[C@H](C)C[C@H](N(C)C)[C@H]3O)[C@](C)(O)C[C@@H](C)CN(C)C(=O)C[C@@H](Cc3ccc(NC(=O)[C@H](Cc4ccccc4Cl)NC(=O)OCc4ccccc4)cc3)NC(=O)[C@H](C(C)C)NC(=O)[C@@H]2C)O[C@@H](C)[C@@H]1O | 7.23
CO[C@]1(C)C[C@H](O[C@H]2[C@H](C)[C@@H](O[C@@H]3O[C@H](C)C[C@H](N(C)C)[C@H]3O)[C@](C)(O)C[C@@H](C)CN(C)C(=O)C[C@@H](Cc3ccc(NC(=O)[C@H](Cc4ccccc4Cl)NC(=O)Cc4ccccc4)cc3)NC(=O)[C@H](C)NC(=O)[C@@H]2C)O[C@@H](C)[C@@H]1O | 4.82
CO[C@]1(C)C[C@H](O[C@H]2[C@H](C)[C@@H](O[C@@H]3O[C@H](C)C[C@H](N(C)C)[C@H]3O)[C@](C)(O)C[C@@H](C)CN(C)C(=O)C[C@@H](Cc3ccc(NC(=O)[C@H](Cc4ccccc4Cl)NC(=O)Cc4ccccc4)cc3)NC(=O)[C@H](C3CC3)NC(=O)[C@@H]2C)O[C@@H](C)[C@@H]1O | 5.58
CO[C@]1(C)C[C@H](O[C@H]2[C@H](C)[C@@H](O[C@@H]3O[C@H](C)C[C@H](N(C)C)[C@H]3O)[C@](C)(O)C[C@@H](C)CN(C)C(=O)C[C@@H](Cc3ccc(NC(=O)[C@H](Cc4ccccc4)NC(=O)Cc4ccccc4)cc3)NC(=O)[C@H](C(C)C)NC(=O)[C@@H]2C)O[C@@H](C)[C@@H]1O | 5.59
CO[C@]1(C)C[C@H](O[C@H]2[C@H](C)[C@@H](O[C@@H]3O[C@H](C)C[C@H](N(C)C)[C@H]3O)[C@](C)(O)C[C@@H](C)CN(C)C(=O)C[C@@H](Cc3ccc(NC(=O)[C@H](Cc4ccccc4Cl)NC(=O)NCc4cccc(F)c4)cc3)NC(=O)[C@H](C(C)C)NC(=O)[C@@H]2C)O[C@@H](C)[C@@H]1O | 7.32
CO[C@]1(C)C[C@H](O[C@H]2[C@H](C)[C@@H](O[C@@H]3O[C@H](C)C[C@H](N(C)C)[C@H]3O)[C@](C)(O)C[C@@H](C)CN(C)C(=O)C[C@@H](Cc3ccc(NC(=O)[C@H](Cc4ccccc4Cl)NC(=O)NCc4ccc(F)cc4)cc3)NC(=O)[C@H](C(C)C)NC(=O)[C@@H]2C)O[C@@H](C)[C@@H]1O | 6.75
CO[C@]1(C)C[C@H](O[C@H]2[C@H](C)[C@@H](O[C@@H]3O[C@H](C)C[C@H](N(C)C)[C@H]3O)[C@](C)(O)C[C@@H](C)CN(C)C(=O)C[C@@H](Cc3ccc(NC(=O)[C@H](Cc4ccccc4C)NC(=O)Cc4ccccc4)cc3)NC(=O)[C@H](C(C)C)NC(=O)[C@@H]2C)O[C@@H](C)[C@@H]1O | 6.31
CO[C@]1(C)C[C@H](O[C@H]2[C@H](C)[C@@H](O[C@@H]3O[C@H](C)C[C@H](N(C)C)[C@H]3O)[C@](C)(O)C[C@@H](C)CN(C)C(=O)C[C@@H](Cc3ccc(NC(=O)[C@H](Cc4ccccc4Cl)NC(=O)Nc4cccc(F)c4)cc3)NC(=O)[C@H](C(C)C)NC(=O)[C@@H]2C)O[C@@H](C)[C@@H]1O | 6.26
CO[C@]1(C)C[C@H](O[C@H]2[C@H](C)[C@@H](O[C@@H]3O[C@H](C)C[C@H](N(C)C)[C@H]3O)[C@](C)(O)C[C@@H](C)CN(C)C(=O)C[C@@H](Cc3ccc(NC(=O)[C@H](Cc4ccccc4Cl)NC(=O)NCc4ccccc4F)cc3)NC(=O)[C@H](C(C)C)NC(=O)[C@@H]2C)O[C@@H](C)[C@@H]1O | 6.46
CO[C@]1(C)C[C@H](O[C@H]2[C@H](C)[C@@H](O[C@@H]3O[C@H](C)C[C@H](N(C)C)[C@H]3O)[C@](C)(O)C[C@@H](C)CN(C)C(=O)C[C@@H](Cc3ccc(NC(=O)[C@H](Cc4ccccc4Cl)NC(=O)Nc4ccccc4F)cc3)NC(=O)[C@H](C(C)C)NC(=O)[C@@H]2C)O[C@@H](C)[C@@H]1O | 7.52
CO[C@]1(C)C[C@H](O[C@H]2[C@H](C)[C@@H](O[C@@H]3O[C@H](C)C[C@H](N(C)C)[C@H]3O)[C@](C)(O)C[C@@H](C)CN(C)C(=O)C[C@@H](Cc3ccc(NC(=O)[C@H](Cc4ccccc4Cl)NC(=O)Cc4ccccc4C)cc3)NC(=O)[C@H](C(C)C)NC(=O)[C@@H]2C)O[C@@H](C)[C@@H]1O | 6.94
CO[C@]1(C)C[C@H](O[C@H]2[C@H](C)[C@@H](O[C@@H]3O[C@H](C)C[C@H](N(C)C)[C@H]3O)[C@](C)(O)C[C@@H](C)CN(C)C(=O)C[C@@H](Cc3ccc(NC(=O)[C@H](Cc4ccc(Cl)cc4Cl)NC(=O)Cc4ccccc4)cc3)NC(=O)[C@H](C(C)C)NC(=O)[C@@H]2C)O[C@@H](C)[C@@H]1O | 6.68

Next, values leading:

pIC50 | SMILES
4.90 | CO[C@]1(C)C[C@H](O[C@H]2[C@H](C)[C@@H](O[C@@H]3O[C@H](C)C[C@H](N(C)C)[C@H]3O)[C@](C)(O)C[C@@H](C)CN(C)C(=O)C[C@@H](Cc3ccc(NC(=O)[C@H](Cc4ccccc4Cl)NC(=O)Cc4ccccc4)cc3)NC(=O)[C@H](CC(C)C)NC(=O)[C@@H]2C)O[C@@H](C)[C@@H]1O
< 4.52 | CO[C@]1(C)C[C@H](O[C@H]2[C@H](C)[C@@H](O[C@@H]3O[C@H](C)C[C@H](N(C)C)[C@H]3O)[C@](C)(O)C[C@@H](C)CN(C)C(=O)C[C@@H](Cc3ccc(NC(=O)[C@H](Cc4ccccc4Cl)NC(=O)Cc4ccccc4)cc3)NC(=O)[C@@H](C(C)C)NC(=O)[C@@H]2C)O[C@@H](C)[C@@H]1O
< 4.52 | CO[C@]1(C)C[C@H](O[C@H]2[C@H](C)[C@@H](O[C@@H]3O[C@H](C)C[C@H](N(C)C)[C@H]3O)[C@](C)(O)C[C@@H](C)CN(C)C(=O)[C@H](C(C)C)NC(=O)C[C@@H](Cc3ccc(NC(=O)[C@H](Cc4ccccc4Cl)NC(=O)Cc4ccccc4)cc3)NC(=O)[C@@H]2C)O[C@@H](C)[C@@H]1O
6.59 | CO[C@]1(C)C[C@H](O[C@H]2[C@H](C)[C@@H](O[C@@H]3O[C@H](C)C[C@H](N(C)C)[C@H]3O)[C@](C)(O)C[C@@H](C)CN(C)C(=O)[C@@H](C(C)C)NC(=O)C[C@H](Cc3ccc(NC(=O)[C@H](Cc4ccccc4Cl)NC(=O)Cc4ccccc4)cc3)NC(=O)[C@@H]2C)O[C@@H](C)[C@@H]1O
< 4.52 | CO[C@]1(C)C[C@H](O[C@H]2[C@H](C)[C@@H](O[C@@H]3O[C@H](C)C[C@H](N(C)C)[C@H]3O)[C@](C)(O)C[C@@H](C)CN(C)C(=O)C[C@@H](Cc3ccc(NC(=O)[C@H](Cc4ccccc4Cl)NC(=O)Cc4ccccc4)cc3)NC(=O)C[C@@H](CC(C)C)NC(=O)[C@@H]2C)O[C@@H](C)[C@@H]1O
< 4.52 | CO[C@]1(C)C[C@H](O[C@H]2[C@H](C)[C@@H](O[C@@H]3O[C@H](C)C[C@H](N(C)C)[C@H]3O)[C@](C)(O)C[C@@H](C)CN(C)C(=O)C[C@H](Cc3ccc(NC(=O)[C@H](Cc4ccccc4Cl)NC(=O)Cc4ccccc4)cc3)NC(=O)[C@H](C(C)C)NC(=O)[C@@H]2C)O[C@@H](C)[C@@H]1O
4.80 | CO[C@]1(C)C[C@H](O[C@H]2[C@H](C)[C@@H](O[C@@H]3O[C@H](C)C[C@H](N(C)C)[C@H]3O)[C@](C)(O)C[C@@H](C)CN(C)C(=O)[C@H](Cc3ccc(NC(=O)[C@H](Cc4ccccc4Cl)NC(=O)Cc4ccccc4)cc3)NC(=O)[C@H](C(C)C)NC(=O)[C@@H]2C)O[C@@H](C)[C@@H]1O
< 4.52 | CO[C@]1(C)C[C@H](O[C@H]2[C@H](C)[C@@H](O[C@@H]3O[C@H](C)C[C@H](N(C)C)[C@H]3O)[C@](C)(O)C[C@@H](C)CN(C)C(=O)[C@@H](C(C)C)NC(=O)C[C@@H](Cc3ccc(NC(=O)[C@H](Cc4ccccc4Cl)NC(=O)Cc4ccccc4)cc3)NC(=O)[C@@H]2C)O[C@@H](C)[C@@H]1O
< 4.52 | CO[C@]1(C)C[C@H](O[C@H]2[C@H](C)[C@@H](O[C@@H]3O[C@H](C)C[C@H](N(C)C)[C@H]3O)[C@](C)(O)C[C@@H](C)CN(C)C(=O)C[C@H](Cc3ccc(NC(=O)[C@H](Cc4ccccc4Cl)NC(=O)Cc4ccccc4)cc3)NC(=O)[C@@H](C(C)C)NC(=O)[C@@H]2C)O[C@@H](C)[C@@H]1O
